Experimental data published in patent US10167262B2, “Herbicidal substituted 3-arylpyrazoles” (FMC CORPORATION, priority 2014, dated 2019).
Read-outs that look alike come from different tables or passages of the source.

Key:
Test in all cases: Test C pre-/postemergence greenhouse test, plant response rating 0-100
Type in all cases: in vivo
[1] = tested on: corn (Zea mays); conditions: Zea mays, pre-emergence, Preemergence
Excerpt: (§1) Seeds of plant species selected from blackgrass (Alopecurus myosuroides), Italian ryegrass (Lolium multiflorum), winter wheat (Triticum aestivum), galium (catchweed bedstraw, Galium aparine), corn (Zea mays), large (Lg) crabgrass (Digitaria sanguinalis), giant foxtail (Setaria faberii), johnsongrass (Sorghum halepense), lambsquarters (Chenopodium album), morningglory (Ipomoea coccinea), yellow nutsedge (Cyperus esculentus), pigweed (Amaranthus retroflexus), ragweed (common ragweed, Ambrosia elatior), soybean (Glycine max), barnyardgrass (Echinochloa crus-galli), oilseed rape (Brassica napus), waterhemp (common waterhemp, Amaranthus rudis), and velvetleaf (Abutilon theophrasti) were planted into a blend of loam soil and sand and treated preemergence with test chemicals formulated in a non-phytotoxic solvent mixture which included a surfactant.
(§2) At the same time, plants selected from these crop and weed species and also winter barley (Hordeum vulgare), bermudagrass (Cynodon dactylon), downy bromegrass (Bromus tectorum), canarygrass (Phalaris minor), cocklebur (common cocklebur, Xanthium strumarium), woolly cupgrass (Eriochloa villosa), deadnettle (henbit deadnettle, Lamium amplexicaule), green foxtail (Setaria viridis), goosegrass (Eleusine indica), surinam grass (Brachiaria decumbens), windgrass (Apera spica-venti), chickweed (common chickweed, Stellaria media), kochia (Kochia scoparia), and wild oat (Avena fatua), were planted in pots containing Redi-Earth® planting medium (Scotts Company, 14111 Scottslawn Road, Marysville, Ohio 43041) comprising spaghnum peat moss, vermiculite, wetting agent and starter nutrients and treated with postemergence applications of test chemicals formulated in the same manner. Plants ranged in height from 2 to 18 cm (1- to 4-leaf stage) for postemergence treatments. Treated plants and controls were maintained in a greenhouse for 13 to 15 days, after which time all species were compared to controls and visually evaluated. Plant response ratings, summarized in Table C, are based on a scale of 0 to 100 where 0 is no effect and 100 is complete control. A dash (-) response means no test result.

[2] = tested on: giant foxtail (Setaria faberii); conditions: Setaria faberi; for pest or weed control at 62 g/ha: 62 g ai/ha; for pest or weed control at 125 g/ha: 125 g ai/ha; for pest or weed control at 250 g/ha: 250 g ai/ha; for pest or weed control at 500 g/ha: 500 g ai/ha
Excerpt: as §1, §2

[3] = tested on: Italian ryegrass (Lolium multiflorum); conditions: Lolium multiflorum; for pest or weed control at 62 g/ha: 62 g ai/ha; for pest or weed control at 125 g/ha: 125 g ai/ha; for pest or weed control at 250 g/ha: 250 g ai/ha; for pest or weed control at 500 g/ha: 500 g ai/ha
Excerpt: as §1, §2

[4] = tested on: velvetleaf (Abutilon theophrasti); conditions: Abutilon theophrasti; for pest or weed control at 62 g/ha: 62 g ai/ha; for pest or weed control at 125 g/ha: 125 g ai/ha; for pest or weed control at 250 g/ha: 250 g ai/ha; for pest or weed control at 500 g/ha: 500 g ai/ha
Excerpt: as §1, §2

[5] = tested on: blackgrass (Alopecurus myosuroides); conditions: Alopecurus myosuroides; for pest or weed control at 62 g/ha: 62 g ai/ha; for pest or weed control at 125 g/ha: 125 g ai/ha; for pest or weed control at 250 g/ha: 250 g ai/ha; for pest or weed control at 500 g/ha: 500 g ai/ha
Excerpt: as §1, §2

[6] = tested on: lambsquarters (Chenopodium album); conditions: Chenopodium album; for pest or weed control at 62 g/ha: 62 g ai/ha; for pest or weed control at 125 g/ha: 125 g ai/ha; for pest or weed control at 250 g/ha: 250 g ai/ha; for pest or weed control at 500 g/ha: 500 g ai/ha
Excerpt: as §1, §2

[7] = tested on: soybean (Glycine max); conditions: Glycine max; for plant injury at 62 g/ha: 62 g ai/ha; for plant injury at 125 g/ha: 125 g ai/ha; for plant injury at 250 g/ha: 250 g ai/ha; for plant injury at 500 g/ha: 500 g ai/ha
Excerpt: as §1, §2

[8] = post-emergence, Postemergence, read-out: Plant response rating (0 to 100), Foxtail, Giant
[9] = post-emergence, Postemergence, scale 0 to 100
[10] = pre-emergence, Preemergence, read-out: Plant response rating, Foxtail, Giant
[11] = post-emergence, Postemergence, read-out: Plant response rating (0 to 100), Ryegrass, Italian
[12] = pre-emergence, Preemergence, read-out: Plant response rating, Ryegrass, Italian
[13] = post-emergence, Postemergence, read-out: Plant response rating (0 to 100), Velvetleaf
[14] = pre-emergence, Preemergence, read-out: Plant response rating, Velvetleaf
[15] = pre-emergence, Preemergence, read-out: Plant response rating, Blackgrass
[16] = post-emergence, Postemergence, read-out: Plant response rating (0 to 100), Lambsquarters
[17] = pre-emergence, Preemergence, read-out: Plant response rating, Lambsquarters
[18] = post-emergence, Postemergence, read-out: Plant response rating (0 to 100), Soybean
[19] = pre-emergence, Preemergence, read-out: Plant response rating, Soybean

CCOC(OCC)(c1ccccc1)c1c[nH]nc1-c1cc(Cl)cc(Cl)c1 [Compound 14, 3-(3,5-dichlorophenyl)-4-(diethoxyphenylmethyl)-1H-pyrazole]
Corn plant response rating (crop injury, 0 = no effect, 100 = complete kill) at 62 g/ha ([1]; 62 g ai/ha): 0% | Corn plant response rating (crop injury, 0 = no effect, 100 = complete kill) at 125 g/ha ([1]; 125 g ai/ha): 0% | Corn plant response rating (crop injury, 0 = no effect, 100 = complete kill) at 250 g/ha ([1]; 250 g ai/ha): 0% | Corn plant response rating (crop injury, 0 = no effect, 100 = complete kill) at 500 g/ha ([1]; 500 g ai/ha): 0% | pest or weed control at 62 g/ha [2, 8]: 0% | pest or weed control at 125 g/ha [2, 8]: 0% | pest or weed control at 250 g/ha [2, 9]: 0% | pest or weed control at 500 g/ha [2, 9]: 0% | pest or weed control at 62 g/ha [2, 10]: 0% | pest or weed control at 125 g/ha [2, 10]: 0% | pest or weed control at 250 g/ha ([2]; pre-emergence, Preemergence): 0% | pest or weed control at 500 g/ha ([2]; pre-emergence, Preemergence): 0% | pest or weed control at 62 g/ha [3, 11]: 0% | pest or weed control at 125 g/ha [3, 11]: 0% | pest or weed control at 250 g/ha [3, 9]: 0% | pest or weed control at 500 g/ha [3, 9]: 5% | pest or weed control at 62 g/ha [3, 12]: 0% | pest or weed control at 125 g/ha [3, 12]: 0% | pest or weed control at 250 g/ha ([3]; pre-emergence, Preemergence): 0% | pest or weed control at 500 g/ha ([3]; pre-emergence, Preemergence): 0% | pest or weed control at 62 g/ha [4, 13]: 75% | pest or weed control at 125 g/ha [4, 13]: 75% | pest or weed control at 250 g/ha [4, 9]: 80% | pest or weed control at 500 g/ha [4, 9]: 85% | pest or weed control at 62 g/ha [4, 14]: 75% | pest or weed control at 125 g/ha [4, 14]: 50% | pest or weed control at 250 g/ha ([4]; pre-emergence, Preemergence): 85% | pest or weed control at 500 g/ha ([4]; pre-emergence, Preemergence): 98% | pest or weed control at 62 g/ha ([5]; post-emergence, Postemergence, read-out: Plant response rating (0 to 100), Blackgrass): 0% | pest or weed control at 125 g/ha ([5]; post-emergence, Postemergence, scale 0 to 100, read-out: Plant response rating, Blackgrass): 0% | pest or weed control at 250 g/ha [5, 9]: 0% | pest or weed control at 500 g/ha [5, 9]: 0% | pest or weed control at 62 g/ha [5, 15]: 50% | pest or weed control at 125 g/ha [5, 15]: 20% | pest or weed control at 250 g/ha ([5]; pre-emergence, Preemergence): 0% | pest or weed control at 500 g/ha ([5]; pre-emergence, Preemergence): 30% | pest or weed control at 62 g/ha [6, 16]: 70% | pest or weed control at 125 g/ha [6, 16]: 95% | pest or weed control at 250 g/ha [6, 9]: 100% | pest or weed control at 500 g/ha [6, 9]: 100% | pest or weed control at 62 g/ha [6, 17]: 100% | pest or weed control at 125 g/ha [6, 17]: 100% | pest or weed control at 250 g/ha ([6]; pre-emergence, Preemergence): 100% | pest or weed control at 500 g/ha ([6]; pre-emergence, Preemergence): 100% | plant injury at 62 g/ha [7, 18]: 0% | plant injury at 125 g/ha [7, 18]: 0% | plant injury at 250 g/ha [7, 9]: 0% | plant injury at 500 g/ha [7, 9]: 0% | plant injury at 62 g/ha [7, 19]: 0% | plant injury at 125 g/ha [7, 19]: 35% | plant injury at 250 g/ha ([7]; pre-emergence, Preemergence): 40% | plant injury at 500 g/ha ([7]; pre-emergence, Preemergence): 10%
